Experimental data as given in US11566007B2, “Ras inhibitors” (Revolution Medicines, Inc., priority 2019, dated 2023).
pEC50, pIC50: −log10 of the molar value. Several values for one entry are separate records, joined by “and”; a condition that tells them apart may be missing. Equal values may be shown once. Read-outs that look alike come from different tables or passages of the source.

Assays:
[1] = molecular target: KRAS G12V (Homo sapiens (Human), UniProt P01116+P62937, G12V); experiment: Ras-Raf (BRAF RBD) disruption / FRET / MOA assay, KRAS G12V; format: biochemical; settings: read-out: IC50* KRAS G12V FRET data
KRAS G12V, sequence (P01116-2 other isoform, or with tags, fused parts or gaps G12V): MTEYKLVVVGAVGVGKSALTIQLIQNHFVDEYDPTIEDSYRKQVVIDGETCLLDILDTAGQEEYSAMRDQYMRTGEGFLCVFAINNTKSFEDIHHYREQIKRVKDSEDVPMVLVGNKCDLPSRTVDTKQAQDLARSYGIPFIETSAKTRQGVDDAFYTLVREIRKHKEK
KRAS G12V, sequence (P62937 whole entry): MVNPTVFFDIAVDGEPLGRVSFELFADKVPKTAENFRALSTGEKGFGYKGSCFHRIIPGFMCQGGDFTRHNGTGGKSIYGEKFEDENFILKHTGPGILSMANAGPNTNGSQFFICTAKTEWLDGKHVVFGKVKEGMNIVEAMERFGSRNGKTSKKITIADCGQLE
Outline: (§1)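 Compound-driven ternary complex of nucleotide-loaded Ras with cyclophilin A, disrupting BRAF RBD binding. 10-point 3-fold dilution from 30 μM final, 3 h at 25° C, then anti-His Eu-W1024 (10 nM) and anti-GST allophycocyanin (50 nM) for 1.5 h. IC50 from TR-FRET ratio decrease versus DMSO.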

[2] = molecular target: NRAS G12C (Homo sapiens (Human), UniProt P01111+P62937, G12C); experiment: Ras-Raf (BRAF RBD) disruption / FRET / MOA assay, NRAS G12C; format: biochemical; settings: read-out: IC50* NRAS G12C FRET data
NRAS G12C, sequence (P01111 whole entry G12C): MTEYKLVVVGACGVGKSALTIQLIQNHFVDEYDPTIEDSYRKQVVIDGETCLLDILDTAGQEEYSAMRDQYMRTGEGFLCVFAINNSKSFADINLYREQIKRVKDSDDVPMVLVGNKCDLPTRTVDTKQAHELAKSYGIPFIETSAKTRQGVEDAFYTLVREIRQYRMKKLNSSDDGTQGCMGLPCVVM
NRAS G12C, sequence (P62937 whole entry): as the sequence (P62937 whole entry) above
Outline: as §1

[3] = molecular target: KRAS G13D (Homo sapiens (Human), UniProt P01116+P62937, G13D); experiment: Ras-Raf (BRAF RBD) disruption / FRET / MOA assay, KRAS G13D; format: biochemical; settings: read-out: IC50* KRAS G13D FRET data
KRAS G13D, sequence (P01116-2 other isoform, or with tags, fused parts or gaps G13D): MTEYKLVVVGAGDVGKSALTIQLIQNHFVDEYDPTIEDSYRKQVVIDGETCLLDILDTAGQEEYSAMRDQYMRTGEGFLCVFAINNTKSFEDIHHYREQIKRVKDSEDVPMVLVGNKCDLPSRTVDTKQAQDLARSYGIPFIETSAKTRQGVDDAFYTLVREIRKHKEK
KRAS G13D, sequence (P62937 whole entry): as the sequence (P62937 whole entry) above
Outline: as §1

[4] = molecular target: KRAS G12D (Homo sapiens (Human), UniProt P01116+P62937, G12D); experiment: Ras-Raf (BRAF RBD) disruption / FRET / MOA assay, KRAS G12D; format: biochemical; settings: Ras-Raf disruption/FRET/MOA assay; class symbols; read-out: KRAS G12D FRET data IC50
KRAS G12D, sequence (P01116-2 other isoform, or with tags, fused parts or gaps G12D): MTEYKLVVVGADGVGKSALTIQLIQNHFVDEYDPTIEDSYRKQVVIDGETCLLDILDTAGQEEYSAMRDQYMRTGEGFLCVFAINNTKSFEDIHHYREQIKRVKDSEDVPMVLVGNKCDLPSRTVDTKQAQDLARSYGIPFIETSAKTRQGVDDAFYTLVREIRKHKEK
KRAS G12D, sequence (P62937 whole entry): as the sequence (P62937 whole entry) above
Outline: as §1

[5] = molecular target: KRAS G12S (Homo sapiens (Human), UniProt P01116+P62937, G12S); experiment: Ras-Raf (BRAF RBD) disruption / FRET / MOA assay, KRAS G12S; format: biochemical; settings: Ras-Raf disruption/FRET/MOA assay; class symbols; read-out: KRAS G12S FRET data IC50
KRAS G12S, sequence (P01116-2 other isoform, or with tags, fused parts or gaps G12S): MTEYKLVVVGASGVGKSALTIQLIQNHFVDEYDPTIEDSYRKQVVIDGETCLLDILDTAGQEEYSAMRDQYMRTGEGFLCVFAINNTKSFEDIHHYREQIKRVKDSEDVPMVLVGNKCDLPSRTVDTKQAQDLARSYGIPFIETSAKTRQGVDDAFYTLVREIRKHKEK
KRAS G12S, sequence (P62937 whole entry): as the sequence (P62937 whole entry) above
Outline: as §1

[6] = test system: NCI-H358 (K-Ras G12C); experiment: CellTiter-Glo cell viability assay, NCI-H358; format: cell-based, human; settings: NCI-H358, 5-day treatment
Outline: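 Viability of K-Ras mutant lines is measured by ATP luminescence after five days of compound treatment. Percent of DMSO control is calculated and dose-response data are fitted with a four-parameter logistic equation.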

[7] = molecular target: KRAS WT (Homo sapiens (Human), UniProt P01116+P62937); experiment: Ras-Raf (BRAF RBD) disruption / FRET / MOA assay, KRAS WT; format: biochemical; settings: read-out: IC50* KRAS WT FRET data
KRAS WT, sequence (P01116-2 other isoform, or with tags, fused parts or gaps): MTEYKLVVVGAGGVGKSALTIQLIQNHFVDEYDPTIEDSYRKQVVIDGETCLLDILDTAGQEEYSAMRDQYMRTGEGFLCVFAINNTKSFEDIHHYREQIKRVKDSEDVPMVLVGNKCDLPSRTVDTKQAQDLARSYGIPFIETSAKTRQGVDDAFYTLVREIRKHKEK
KRAS WT, sequence (P62937 whole entry): as the sequence (P62937 whole entry) above
Outline: as §1

[8] = molecular target: K-Ras G13C (Homo sapiens (Human), UniProt P01116+P62937, G13C); experiment: Ras-Raf (BRAF RBD) disruption / FRET / MOA assay, KRAS G13C; format: biochemical
K-Ras G13C, sequence (P01116-2 other isoform, or with tags, fused parts or gaps G13C): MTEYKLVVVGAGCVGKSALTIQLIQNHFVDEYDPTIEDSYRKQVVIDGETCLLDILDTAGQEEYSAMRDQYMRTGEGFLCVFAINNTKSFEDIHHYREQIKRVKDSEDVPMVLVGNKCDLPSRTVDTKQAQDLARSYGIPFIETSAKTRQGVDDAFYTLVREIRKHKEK
K-Ras G13C, sequence (P62937 whole entry): as the sequence (P62937 whole entry) above
Outline: as §1

[9] = molecular target: K-Ras G12C (Homo sapiens (Human), UniProt P01116+P62937, G12C); experiment: Ras-Raf (BRAF RBD) disruption / FRET / MOA assay, KRAS G12C; format: biochemical
K-Ras G12C, sequence (P01116-2 other isoform, or with tags, fused parts or gaps G12C): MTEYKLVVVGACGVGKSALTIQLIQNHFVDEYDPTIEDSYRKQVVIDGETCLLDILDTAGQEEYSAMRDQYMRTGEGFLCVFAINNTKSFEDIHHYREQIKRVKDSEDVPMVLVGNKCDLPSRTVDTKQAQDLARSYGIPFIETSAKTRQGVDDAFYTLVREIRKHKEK
K-Ras G12C, sequence (P62937 whole entry): as the sequence (P62937 whole entry) above
Outline: as §1

[10] = test system: NCI-H358 cells (K-Ras G12C); experiment: Potency assay: pERK in NCI-H358 cells; format: cell-based, human; settings: Homo sapiens, NCI-H358; H358 KRAS G12C; read-out: pERK EC50
Outline: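 4 h cpd, 37 °C; 10-pt 3-fold series, 10 mM DMSO top stock, duplicates. Readout pERK: AlphaLISA SureFire Ultra or In-Cell Western (IR-800CW secondary, DRAQ5 DNA stain). IC50, 4-PL fit vs log conc.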

[11] = Homo sapiens, NCI-H358, 120 h, class symbols, read-out: Additional H358 Cell Viability assay data (K-Ras G12C, IC50)
[12] = KRAS G13C, Ras-Raf disruption/FRET/MOA assay, read-out: IC50* KRAS G13C FRET data
[13] = KRAS G12C, Ras-Raf disruption/FRET/MOA assay, read-out: IC50* KRAS G12C FRET data
[14] = class symbols, read-out: Additional H358 Cell Viability assay data (K-Ras G12C, IC50)

CCn1c(-c2cccnc2COC)c2c3cc(ccc31)-c1cccc(c1)C[C@H](NC(=O)[C@H](C(C)C)N(C)C(=O)[C@H]1CCN(C(=O)C#CCN(C)C)C1)C(=O)N1CCC[C@H](N1)C(=O)OCC(C)(C)C2 (atropisomer, axis not shown) [Example A138]
pIC50 [1]: 5.00 to 6.00
pIC50 [2]: 7.00 to 8.00
pIC50 [3]: 5.00 to 6.00
pIC50 [4]: 5.00 to 6.00
pIC50 [5]: < 5.00
pIC50 [6, 11]: > 8.00
pIC50 [7]: 5.00 to 6.00
pIC50 [8, 12]: 6.00 to 7.00
pIC50 [9, 13]: 7.00 to 8.00
pEC50 [10]: > 5.30

CCn1c(-c2cncnc2C(C)C)c2c3cc(ccc31)-c1cc(O)cc(c1)C[C@H](NC(=O)[C@H](C(C)C)N(C)C(=O)[C@H]1CCN(C(=O)C#CCN(C)C)C1)C(=O)N1CCC[C@H](N1)C(=O)OCC(C)(C)C2 (atropisomer, axis not shown) [Example A155]
pIC50 [1]: 6.00 to 7.00 and 7.00 to 8.00
pIC50 [2]: 7.00 to 8.00 and > 8.00
pIC50 [3]: 5.00 to 6.00 and 7.00 to 8.00
pIC50 [4]: 5.00 to 6.00 and 6.00 to 7.00
pIC50 [5]: 5.00 to 6.00 and 7.00 to 8.00
pIC50 [6, 11]: 7.00 to 8.00
pIC50 [6, 14]: > 8.00
pIC50 [7]: 5.00 to 6.00 and 7.00 to 8.00
pIC50 [8, 12]: 7.00 to 8.00 and > 8.00
pIC50 [9, 13]: 7.00 to 8.00
pEC50 [10]: > 5.30

CCn1c(-c2ccccc2CN(C)C)c2c3cc(ccc31)-c1cc(O)cc(c1)C[C@H](NC(=O)[C@H](C(C)C)N(C)C(=O)c1ncc(NC(=O)/C=C/CN(C)C)s1)C(=O)N1CCC[C@H](N1)C(=O)OCC(C)(C)C2 (atropisomer, axis not shown) [Example A163]
pIC50 [1]: < 5.00
pIC50 [2]: 5.00 to 6.00
pIC50 [3]: 5.00 to 6.00
pIC50 [4]: 5.00 to 6.00
pIC50 [5]: < 5.00
pIC50 [6, 11]: < 6.00
pIC50 [7]: 5.00 to 6.00
pIC50 [8, 12]: 7.00 to 8.00
pIC50 [9, 13]: 5.00 to 6.00
pEC50 [10]: > 5.30

CC#CC(=O)N1CC[C@H](C(=O)N(C)[C@H](C(=O)N[C@H]2Cc3cccc(c3)-c3ccc4c(c3)c(c(-c3cccnc3[C@H](C)OC)n4CC)CC(C)(C)COC(=O)[C@@H]3CCCN(N3)C2=O)C(C)C)C1 (atropisomer, axis not shown) [Example A173]
pIC50 [1]: 5.00 to 6.00
pIC50 [2]: 6.00 to 7.00
pIC50 [3]: < 5.00
pIC50 [4]: < 5.00
pIC50 [5]: 5.00 to 6.00
pIC50 [6, 11]: 7.00 to 8.00
pIC50 [7]: < 5.00
pIC50 [8, 12]: < 5.00
pIC50 [9, 13]: 6.00 to 7.00
pEC50 [10]: > 5.30

CCn1c(-c2cncnc2[C@H](C)OC)c2c3cc(ccc31)-c1cc(O)cc(c1)C[C@H](NC(=O)[C@H](C(C)C)N(C)C(=O)[C@H]1CCN(C(=O)C#CCN3CCOCC3)C1)C(=O)N1CCC[C@H](N1)C(=O)OCC(C)(C)C2 (atropisomer, axis not shown) [Example A182]
pIC50 [1]: 6.00 to 7.00 and 5.00 to 6.00
pIC50 [2]: 7.00 to 8.00 and > 8.00
pIC50 [3]: 6.00 to 7.00 and 5.00 to 6.00
pIC50 [4]: 5.00 to 6.00 and < 5.00
pIC50 [5]: 6.00 to 7.00 and 5.00 to 6.00
pIC50 [6, 11]: 7.00 to 8.00
pIC50 [6, 14]: > 8.00
pIC50 [7]: 6.00 to 7.00 and 5.00 to 6.00
pIC50 [8, 12]: 7.00 to 8.00 and 5.00 to 6.00
pIC50 [9, 13]: 7.00 to 8.00 and > 8.00
pEC50 [10]: > 5.30

CCn1c(-c2cccnc2[C@H](C)OC)c2c3cc(ccc31)-c1csc(n1)C[C@H](NC(=O)[C@H](C(C)C)N(C)C(=O)[C@H]1CCN(C(=O)C#CCN3CCOCC3)C1)C(=O)N1CCC[C@H](N1)C(=O)OCC(C)(C)C2 (atropisomer, axis not shown) [Example A186]
pIC50 [1]: 5.00 to 6.00 and < 5.00
pIC50 [2]: 7.00 to 8.00 and 5.00 to 6.00
pIC50 [3]: < 5.00
pIC50 [4]: < 5.00
pIC50 [5]: 5.00 to 6.00 and < 5.00
pIC50 ([6]; Homo sapiens, NCI-H358, 120 h, read-out: H358 Cell Viability (K-Ras G12C) IC50): 8.30
pIC50 [7]: < 5.00
pIC50 [8, 12]: < 5.00 and 5.00 to 6.00
pIC50 ([8]; with Cyclophilin A, BRAF RBD, read-out: FRET (K-Ras G13C) IC50): 6.03
pIC50 [9, 13]: 7.00 to 8.00 and 5.00 to 6.00
pIC50 ([9]; with Cyclophilin A, BRAF RBD, read-out: FRET (K-Ras G12C) IC50): 7.42
pEC50 [10]: > 5.30

CO[C@@H](C)c1ncccc1-c1c2c3cc(ccc3n1C)-c1cccc(c1)C[C@H](NC(=O)[C@H](C(C)C)N(C)C(=O)[C@H]1CCN(C(=O)C#CCN3CCOCC3)C1)C(=O)N1CCC[C@H](N1)C(=O)OCC(C)(C)C2 (atropisomer, axis not shown) [Example A192]
pIC50 [1]: < 5.00
pIC50 [2]: 6.00 to 7.00 and 5.00 to 6.00
pIC50 [3]: < 5.00
pIC50 [4]: < 5.00
pIC50 [5]: < 5.00
pIC50 [6, 11]: 6.00 to 7.00
pIC50 [7]: < 5.00
pIC50 [8, 12]: < 5.00
pIC50 [9, 13]: 6.00 to 7.00 and 5.00 to 6.00
pEC50 [10]: > 5.30
